# Values quoted from earlier work as cited in patent US12378302B2, “Fusion molecules and uses thereof” (Foundation Medicine, Inc., priority 2012, dated 2025).
# Read-outs that look alike come from different tables or passages of the source.
# Experiments:
# PI3Kγ = PI3Kγ (Homo sapiens, UniProt P48736); conditions: read-out: Ki PI3Kγ (p110γ)
# Smad4-null cells = conditions: pre-clinical mouse models
# [1] = test system: Vps34, AKT, PDK1, p70S6K, MEK, ERK, p38, or JNK
# PDGFR = conditions: read-out: IC50 PDGFR
# [2] = test system: cells expressing FGFR1 fusions
# pancreatic cancer [3] = conditions: Phase 2, gefitinib with gemcitabine
# pancreatic cancer [4] = conditions: Phase 2, pancreatic cancer
# ErbB4 = molecular target: T1, ErbB4 (Homo sapiens, UniProt Q15303)
# T1 construct: host or cells: glioblastoma cell lines
# T1 sequence (Q15303 26-1308): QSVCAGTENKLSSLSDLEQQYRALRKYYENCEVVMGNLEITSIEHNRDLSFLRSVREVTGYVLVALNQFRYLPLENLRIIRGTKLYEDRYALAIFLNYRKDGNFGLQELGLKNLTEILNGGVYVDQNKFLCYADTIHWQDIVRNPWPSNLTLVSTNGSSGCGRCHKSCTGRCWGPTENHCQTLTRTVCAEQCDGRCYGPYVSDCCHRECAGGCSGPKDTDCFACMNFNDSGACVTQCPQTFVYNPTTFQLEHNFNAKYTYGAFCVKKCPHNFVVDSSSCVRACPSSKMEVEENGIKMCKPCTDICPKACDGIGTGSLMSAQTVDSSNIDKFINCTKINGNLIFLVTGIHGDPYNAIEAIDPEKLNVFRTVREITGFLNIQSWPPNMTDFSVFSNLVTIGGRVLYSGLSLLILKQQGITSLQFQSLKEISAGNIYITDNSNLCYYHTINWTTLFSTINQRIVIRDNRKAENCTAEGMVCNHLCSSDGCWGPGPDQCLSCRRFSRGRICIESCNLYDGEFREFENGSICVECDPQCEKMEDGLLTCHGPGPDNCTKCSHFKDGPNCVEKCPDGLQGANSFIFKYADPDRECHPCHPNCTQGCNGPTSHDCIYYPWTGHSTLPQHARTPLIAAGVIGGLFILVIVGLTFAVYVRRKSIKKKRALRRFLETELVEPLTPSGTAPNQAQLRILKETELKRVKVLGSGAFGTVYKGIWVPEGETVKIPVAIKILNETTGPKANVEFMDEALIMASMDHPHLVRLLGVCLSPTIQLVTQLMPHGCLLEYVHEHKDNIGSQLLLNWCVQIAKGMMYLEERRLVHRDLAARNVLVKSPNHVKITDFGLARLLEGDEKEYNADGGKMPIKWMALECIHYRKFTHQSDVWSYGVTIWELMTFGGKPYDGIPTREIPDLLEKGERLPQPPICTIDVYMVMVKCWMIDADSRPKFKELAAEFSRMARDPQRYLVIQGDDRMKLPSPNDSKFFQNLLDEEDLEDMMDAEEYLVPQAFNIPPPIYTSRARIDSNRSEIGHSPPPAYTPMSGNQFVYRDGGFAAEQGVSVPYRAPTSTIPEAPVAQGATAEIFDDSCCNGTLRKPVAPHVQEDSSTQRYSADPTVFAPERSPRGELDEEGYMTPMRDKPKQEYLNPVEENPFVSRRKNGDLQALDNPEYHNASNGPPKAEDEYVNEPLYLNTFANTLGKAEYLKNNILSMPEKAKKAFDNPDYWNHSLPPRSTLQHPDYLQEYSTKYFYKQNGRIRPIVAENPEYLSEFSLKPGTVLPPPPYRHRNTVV
# ErbB3 = ErbB3 (Homo sapiens, UniProt P21860)
# ErbB3, sequence (P21860 20-1342): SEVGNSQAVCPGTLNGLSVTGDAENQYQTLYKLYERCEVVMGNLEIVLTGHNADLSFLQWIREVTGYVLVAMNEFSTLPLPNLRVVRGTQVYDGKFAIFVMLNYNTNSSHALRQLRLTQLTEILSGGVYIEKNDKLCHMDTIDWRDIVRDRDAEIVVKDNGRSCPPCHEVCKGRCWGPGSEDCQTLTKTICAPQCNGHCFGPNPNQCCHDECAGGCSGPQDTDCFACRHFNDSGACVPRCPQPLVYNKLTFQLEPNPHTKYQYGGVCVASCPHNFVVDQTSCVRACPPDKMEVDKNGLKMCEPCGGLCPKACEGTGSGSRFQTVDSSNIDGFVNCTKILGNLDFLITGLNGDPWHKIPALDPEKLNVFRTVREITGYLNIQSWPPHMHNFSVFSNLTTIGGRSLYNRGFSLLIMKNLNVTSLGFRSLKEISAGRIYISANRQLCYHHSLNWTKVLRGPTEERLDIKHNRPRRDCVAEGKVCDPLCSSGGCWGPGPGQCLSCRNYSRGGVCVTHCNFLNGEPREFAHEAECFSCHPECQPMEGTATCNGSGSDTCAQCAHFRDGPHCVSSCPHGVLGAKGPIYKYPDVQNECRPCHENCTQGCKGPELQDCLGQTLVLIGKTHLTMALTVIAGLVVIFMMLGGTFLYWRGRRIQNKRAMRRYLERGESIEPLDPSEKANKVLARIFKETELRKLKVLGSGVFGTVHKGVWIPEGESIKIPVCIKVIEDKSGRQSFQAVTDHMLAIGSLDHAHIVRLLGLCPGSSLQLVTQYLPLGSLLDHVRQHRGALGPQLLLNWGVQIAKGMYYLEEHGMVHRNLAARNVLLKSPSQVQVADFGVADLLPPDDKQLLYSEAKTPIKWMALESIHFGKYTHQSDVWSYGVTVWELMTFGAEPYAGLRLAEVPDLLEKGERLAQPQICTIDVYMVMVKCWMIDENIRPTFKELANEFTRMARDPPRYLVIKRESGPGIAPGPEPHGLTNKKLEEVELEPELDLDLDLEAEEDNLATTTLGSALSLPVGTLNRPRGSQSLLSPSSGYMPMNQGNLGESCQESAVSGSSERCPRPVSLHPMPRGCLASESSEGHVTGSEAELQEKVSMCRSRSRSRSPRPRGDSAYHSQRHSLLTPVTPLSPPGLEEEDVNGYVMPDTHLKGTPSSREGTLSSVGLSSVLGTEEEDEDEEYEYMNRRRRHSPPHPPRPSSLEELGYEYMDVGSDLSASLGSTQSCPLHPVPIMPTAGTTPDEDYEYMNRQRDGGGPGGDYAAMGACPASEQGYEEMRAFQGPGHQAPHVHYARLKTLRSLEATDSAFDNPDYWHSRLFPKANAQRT
# [5] = test system: advanced non-small cell lung cancer
# [6] = test system: KIF5B-RET transformed cells; conditions: Lipson et al
# inactive form of ErbB4 = inactive form of ErbB4 (Homo sapiens, UniProt Q15303); conditions: region conserved in all EGF family members
# inactive form of ErbB4, sequence (Q15303 702-1029 limits assumed): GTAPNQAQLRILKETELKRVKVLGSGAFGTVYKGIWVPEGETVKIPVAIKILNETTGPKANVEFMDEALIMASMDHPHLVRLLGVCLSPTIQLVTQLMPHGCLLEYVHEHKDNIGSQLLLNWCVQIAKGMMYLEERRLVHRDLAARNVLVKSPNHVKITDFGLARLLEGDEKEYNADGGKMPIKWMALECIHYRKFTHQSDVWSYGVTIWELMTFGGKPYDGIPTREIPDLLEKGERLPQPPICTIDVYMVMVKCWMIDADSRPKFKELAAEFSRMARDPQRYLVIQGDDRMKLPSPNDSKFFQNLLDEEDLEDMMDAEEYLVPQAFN
# [7] = test system: early stage NSCLC patients; conditions: Phase 2 trial
# [8] = test system: advanced urothelial cancer; conditions: Phase 2, single agent
# advanced cervical cancer = conditions: Phase 2, pazopanib arm compared to lapatinib therapy
# all four Fgfr kinases [9] = conditions: preclinical studies
# all four Fgfr kinases [10] = test system: all four Fgfr kinases
# EGFR-stimulated HUVEC [11] = conditions: read-out: IC50 EGFR-stimulated HUVEC proliferation
# VEGFR-stimulated cells [12] = conditions: read-out: IC50 cell proliferation of VEGFR-stimulated cells
# MTC = conditions: randomized Phase 3, vandetanib compared to placebo
# VEGFR-stimulated cells [13] = conditions: read-out: IC50 cell proliferation of VEGFR-stimulated cells; remark: listed apart in the source
# EGFR-stimulated HUVEC [14] = conditions: read-out: IC50 EGFR-stimulated HUVEC proliferation; remark: listed apart in the source
# PI3Kγ, sequence (P48736 whole entry): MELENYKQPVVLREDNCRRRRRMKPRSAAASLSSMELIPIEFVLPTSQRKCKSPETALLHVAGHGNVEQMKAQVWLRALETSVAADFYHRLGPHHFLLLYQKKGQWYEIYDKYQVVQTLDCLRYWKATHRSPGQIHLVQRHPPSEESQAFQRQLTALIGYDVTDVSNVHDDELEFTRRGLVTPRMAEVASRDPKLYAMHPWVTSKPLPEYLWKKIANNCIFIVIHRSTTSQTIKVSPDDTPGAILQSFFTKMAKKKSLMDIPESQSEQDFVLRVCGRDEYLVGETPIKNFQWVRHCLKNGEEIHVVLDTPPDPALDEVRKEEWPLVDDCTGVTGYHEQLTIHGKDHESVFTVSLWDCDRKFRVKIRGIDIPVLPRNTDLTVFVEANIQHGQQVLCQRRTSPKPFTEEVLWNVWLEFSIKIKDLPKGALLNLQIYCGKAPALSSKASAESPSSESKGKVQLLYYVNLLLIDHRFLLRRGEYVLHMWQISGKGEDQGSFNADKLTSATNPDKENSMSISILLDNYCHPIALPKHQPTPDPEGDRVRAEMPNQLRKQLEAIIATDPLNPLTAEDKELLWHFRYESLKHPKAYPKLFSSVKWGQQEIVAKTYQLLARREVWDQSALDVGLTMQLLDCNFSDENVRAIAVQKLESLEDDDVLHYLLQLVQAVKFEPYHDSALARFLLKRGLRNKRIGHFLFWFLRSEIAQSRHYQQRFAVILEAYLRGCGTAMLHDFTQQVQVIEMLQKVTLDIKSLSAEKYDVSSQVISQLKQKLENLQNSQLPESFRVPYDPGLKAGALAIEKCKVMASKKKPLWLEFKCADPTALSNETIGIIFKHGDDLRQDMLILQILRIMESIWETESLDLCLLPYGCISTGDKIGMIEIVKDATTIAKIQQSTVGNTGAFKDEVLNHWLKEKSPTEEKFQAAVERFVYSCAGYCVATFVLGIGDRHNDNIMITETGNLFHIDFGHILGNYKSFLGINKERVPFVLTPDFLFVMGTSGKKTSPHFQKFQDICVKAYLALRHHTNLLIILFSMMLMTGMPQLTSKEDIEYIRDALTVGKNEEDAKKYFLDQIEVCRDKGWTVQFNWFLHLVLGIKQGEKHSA
compound,measurement,setting,value
"COc1ncc(-c2ccc3nccc(-c4ccnnc4)c3c2)cc1NS(=O)(=O)c1ccc(F)cc1F [GSK2126458, 2,4-difluoro-N-(2-methoxy-5-(4-(pyridazin-4-yl)quinolin-6-yl)pyridin-3-yl)benzenesulfonamide]",Ki,PI3Kγ,0.024 nM
"c1ccc(-c2nn3c(c2-c2ccnc4cc(OCCN5CCOCC5)ccc24)CCC3)nc1 [LY2109761, 7-(2-morpholinoethoxy)-4-(2-(pyridin-2-yl)-5,6-dihydro-4H-pyrrolo[1,2-b]pyrazol-3-yl)quinoline]",metastasis of Smad4-null cells,Smad4-null cells,block metastasis
"COc1ccc(-c2cc3c(C)nc(N)nc3n([C@H]3CC[C@H](OCCO)CC3)c2=O)cn1 [PF-04691502, 2-amino-8-((1r,4r)-4-(2-hydroxyethoxy)cyclohexyl)-6-(6-methoxypyridin-3-yl)-4-methylpyrido[2,3-d]pyrimidin-7(8H)-one]","activity against Vps34, AKT, PDK1, p70S6K, MEK, ERK, p38, or JNK",[1],little activity
"Nc1ncnc2c1c(-c1cnc3[nH]ccc3c1)nn2C1CCCC1 [PP-121, 1-cyclopentyl-3-(1H-pyrrolo[2,3-b]pyridin-5-yl)-1H-pyrazolo[3,4-d]pyrimidin-4-amine]",IC50,PDGFR,2 nM
Cc1nc(Nc2ncc(C(=O)Nc3c(C)cccc3Cl)s2)cc(N2CCN(CCO)CC2)n1 [dasatinib],sensitivity of cells expressing FGFR1 fusions,[2],sensitivity
COc1cc2ncnc(Nc3ccc(F)c(Cl)c3)c2cc1OCCCN1CCOCC1 [gefitinib],instances of stable disease,pancreatic cancer [3],12/53
same,responses,pancreatic cancer [3],6/53
same,Akt/Erk pathway,glioblastoma cell lines,decrease
same,cell cycle,glioblastoma cell lines,cell cycle arrest
same,efficacy,pancreatic cancer [4],some efficacy
same,"binding to ErbB4, preventing phosphorylation and therefore activation",ErbB4,bind
same,"binding to ErbB3, preventing phosphorylation and therefore activation",ErbB3,bind
same,progression-free survival compared with combination chemotherapy,[5]; chemo-naïve patients with known EGFR mutations in their tumor,significant improvement in progression-free survival
same,survival benefit compared to placebo,[5]; patients who had progressed on first-line therapy,failed to show a survival benefit
same,sensitivity of KIF5B-RET transformed cells,[6],not
CS(=O)(=O)CCNCc1ccc(-c2ccc3ncnc(Nc4ccc(OCc5cccc(F)c5)c(Cl)c4)c3c2)o1 [lapatinib],Akt/Erk pathway,glioblastoma cell lines,decrease
same,cell cycle,glioblastoma cell lines,cell cycle arrest
same,"binding to ErbB4, preventing phosphorylation and therefore activation",ErbB4,bind
same,"binding to ErbB3, preventing phosphorylation and therefore activation",ErbB3,bind
same,binding to ErbB4,inactive form of ErbB4,bind an inactive form of ErbB4
Cc1ccc(Nc2nccc(N(C)c3ccc4c(C)n(C)nc4c3)n2)cc1S(N)(=O)=O [pazopanib],patients who achieved partial response,[7],3 patients
same,patients who experienced a reduction in tumor volume,[7]; 30/35,86%
same,Disease control rate,[8],51.2%
same,Partial responses (patients/enrolled),[8],7/41
same,Stable disease (patients/enrolled),[8],14/41
same,PFS and OS,advanced cervical cancer,improved PFS and OS
Cc1ccc(C(=O)Nc2ccc(CN3CCN(C)CC3)c(C(F)(F)F)c2)cc1C#Cc1cnc2cccnn12 [ponatinib],activity against all four Fgfr kinases,all four Fgfr kinases [9],substantial activity
same,activity against all four Fgfr kinases,all four Fgfr kinases [10],substantial activity
COc1cc2c(Nc3ccc(Br)cc3F)ncnc2cc1OCC1CCN(C)CC1 [vandetanib],IC50,EGFR-stimulated HUVEC [11],170 nM
same,IC50,VEGFR-stimulated cells [12],60 nM
same,PFS,MTC,significant improvement in PFS
same,IC50,VEGFR-stimulated cells [13],60 nM
same,IC50,EGFR-stimulated HUVEC [14],170 nM
